Data published in patent US9624544B2, “Allelic disorders caused by mutations in TRPV4” (Northwestern University, priority 2009, dated 2017).

Assays:
[1] = tested on: TRPV4 (wtTRPV4, TRPV4R269H, TRPV4R316C); assay: Calcium imaging, internal Fura-2 fluorescence ratio (340/380), in transiently transfected HEK293 cells; format: cell-based, human; conditions: for effect on [Ca2+]i (internal fluorescence ratio): WT-TRPV4, R269H and R316C transfected HEK293 cells
Method: The TRPV4 channel responds to a variety of stimuli (Nilius et al. Physiol Rev 87, 165-217 (2007); herein incorporated by reference in its entirety). To test the potential effects of the mutations on calcium channel activity, the calcium channel activity of transiently transfected HEK293 cells was analyzed using internal Fura-2 fluorescence ratio (340/380) as an indicator of the intracellular Ca2+ levels, which depend on Ca2+ influx. Calcium levels of the transfected cells were examined in response to various stimuli, including TRPV4-specific agonist 4α-phorbol 12, 13-didecanoate (4αPDD) (SEE FIG. 4), osmotic cell swelling (SEE FIG. 5), moderate heat (37° C.) (SEE FIG. 9) and endogenous agonist arachidonic acid (SEE FIG. 10). A consistent pattern of channel response to different stimuli was observed. […] The increased calcium channel activity was inhibited by TRPV antagonist ruthenium red.
Human embryonic kidney cells (HEK293) were grown on collagen-coated glass coverslips in Dulbecco's modified Eagle's medium containing 10% (v/v) human serum, 2 mM L-glutamine, 2 U/ml penicillin, and 2 […] at 37° C. in a humidity-controlled incubator with 5% CO2. The cells were transiently transfected with expression vectors, wild-type TRPV4, TRPV4^R316C or TRPV4^R269H using Lipofectamine 2000 (Invitrogen).
Intracellular free calcium concentration was measured using digital video microfluorimetry. Twenty-four hours after transfection, cells were rinsed briefly with HEPES buffer (120 mM NaCl, 5.4 mM KCl, 1.6 mM MgCl2, 1.8 mM CaCl2, 11 mM glucose, and 25 mM HEPES, pH 7.2), and loaded with 4 μM fura-2 AM (Molecular Probes) in HEPES buffer for 30 min at room temperature. […] The coverslips were then mounted on the stage of a Nikon Diaphot inverted epifluorescence microscope equipped for digital fluorescence microscopy. After excitation at 340 nm (Ca^2+-bound) and 380 nm (Ca^2+-free) fluorescence was digitally monitored at 520 nm. […] Values for Rmin and Rmax were determined by applying Ca^2+-free solution and high Ca^2+ containing solution in the presence of 5 μM ionomycin, respectively. […]

[2] = tested on: TRPV4 (wtTRPV4, TRPV4-R269H); assay: Whole cell voltage clamp recordings of TRPV4 currents from transfected HEK293 cells; format: cell-based, human; conditions: 20 μM ruthenium red in the bath; voltage ramp -100 to 100 mV; cells expressing wtTRPV4 or TRPV4-R269H
Method: The effect of the CMT2C-linked mutation (TRPV4R269H) on the electrophysiological properties of TRPV4 was examined. Whole-cell patch-clamp recordings were obtained from transiently transfected HEK293 cells.
Whole cell voltage clamp recordings were performed to HEK293 cells transiently transfected with wild-type or R269H TRPV4 cDNA. […] Similar GFP-fluorescent cells were selected for experiments. […] The series resistance was 4 to 14 MSΩ and was compensated between 65 and 75%. The extracellular solution consisted of (in mM): NaCl 100, KCl 6, MgCl2 2, CaCl2 1.5, Glucose 10, HEPES 10, pH 7.38 adjusted with NaOH, ˜315 mOsm adjusted with sucrose. Whole cell currents were recorded using an Axopatch 200B amplifier (Molecular Devices). Cells were held at −30 mV and currents were elicited by slow voltage ramps (from −100 mV to +100 mV, 0.6 sec duration), filtered at 5 KHz and sampled at 10 KHz. Drugs were bath-applied at a rate of ˜4 ml/min. The current density was determined by normalizing the current to the cell capacitance measured in voltage clamp using a −5 mV square pulse from a holding potential of −30 mV. Ruthenium red was prepared in a 20 mM stock solution (in water) and stored at 2-4° C. Working solutions were prepared freshly daily and were bath applied. After drug application the dish was discarded even if complete wash-out of the drug was obtained.

CCCCCCCCCC(=O)O[C@@H]1[C@@H](C)[C@@]2(O)[C@@H](C=C(CO)C[C@@]3(O)C(=O)C(C)=C[C@@H]23)[C@@H]2C(C)(C)[C@]12OC(=O)CCCCCCCCC [4αPDD, 4α-phorbol 12, 13-didecanoate]
effect on [Ca2+]i (internal fluorescence ratio) ([1]; 4αPDD 2 μM): induced an increase in [Ca2+]i

CCCCC/C=C\C/C=C\C/C=C\C/C=C\CCCC(=O)O [AA, arachidonic acid]
effect on [Ca2+]i (internal fluorescence ratio) ([1]; arachidonic acid 10 μM): induced an increase in [Ca^2+]i

N.N.N.N.N.N.N.N.N.N.N.N.N.N.[Cl-].[Cl-].[Cl-].[Cl-].[Cl-].[Cl-].[O-2].[O-2].[Ru+3].[Ru+3].[Ru+4] [ruthenium red]
effect on basal whole-cell currents [2]: dramatically reduced the currents
effect on the increased calcium channel activity ([1]; ruthenium red 20 μM used to block the stimuli, transfected HEK293 cells): inhibited
